Measurements: ChEMBL document CHEMBL6096732 (J Med Chem, 2025)
Active and inactive are the calls of the source. The rule behind the calls is not given here.

Legend:
[1] = target: Histone deacetylase 1 (Homo sapiens, UniProt Q13547); settings: dose 500.0 nM, time 3.0 hrs
[2] = target: Histone deacetylase 3 (Homo sapiens, UniProt O15379); settings: dose 500.0 nM, time 3.0 hrs
[3] = target: T1, Protein deacetylase HDAC6 (Homo sapiens) (UniProt Q9UBN7); settings: dose 500.0 nM, time 3.0 hrs
T1 sequence (whole entry): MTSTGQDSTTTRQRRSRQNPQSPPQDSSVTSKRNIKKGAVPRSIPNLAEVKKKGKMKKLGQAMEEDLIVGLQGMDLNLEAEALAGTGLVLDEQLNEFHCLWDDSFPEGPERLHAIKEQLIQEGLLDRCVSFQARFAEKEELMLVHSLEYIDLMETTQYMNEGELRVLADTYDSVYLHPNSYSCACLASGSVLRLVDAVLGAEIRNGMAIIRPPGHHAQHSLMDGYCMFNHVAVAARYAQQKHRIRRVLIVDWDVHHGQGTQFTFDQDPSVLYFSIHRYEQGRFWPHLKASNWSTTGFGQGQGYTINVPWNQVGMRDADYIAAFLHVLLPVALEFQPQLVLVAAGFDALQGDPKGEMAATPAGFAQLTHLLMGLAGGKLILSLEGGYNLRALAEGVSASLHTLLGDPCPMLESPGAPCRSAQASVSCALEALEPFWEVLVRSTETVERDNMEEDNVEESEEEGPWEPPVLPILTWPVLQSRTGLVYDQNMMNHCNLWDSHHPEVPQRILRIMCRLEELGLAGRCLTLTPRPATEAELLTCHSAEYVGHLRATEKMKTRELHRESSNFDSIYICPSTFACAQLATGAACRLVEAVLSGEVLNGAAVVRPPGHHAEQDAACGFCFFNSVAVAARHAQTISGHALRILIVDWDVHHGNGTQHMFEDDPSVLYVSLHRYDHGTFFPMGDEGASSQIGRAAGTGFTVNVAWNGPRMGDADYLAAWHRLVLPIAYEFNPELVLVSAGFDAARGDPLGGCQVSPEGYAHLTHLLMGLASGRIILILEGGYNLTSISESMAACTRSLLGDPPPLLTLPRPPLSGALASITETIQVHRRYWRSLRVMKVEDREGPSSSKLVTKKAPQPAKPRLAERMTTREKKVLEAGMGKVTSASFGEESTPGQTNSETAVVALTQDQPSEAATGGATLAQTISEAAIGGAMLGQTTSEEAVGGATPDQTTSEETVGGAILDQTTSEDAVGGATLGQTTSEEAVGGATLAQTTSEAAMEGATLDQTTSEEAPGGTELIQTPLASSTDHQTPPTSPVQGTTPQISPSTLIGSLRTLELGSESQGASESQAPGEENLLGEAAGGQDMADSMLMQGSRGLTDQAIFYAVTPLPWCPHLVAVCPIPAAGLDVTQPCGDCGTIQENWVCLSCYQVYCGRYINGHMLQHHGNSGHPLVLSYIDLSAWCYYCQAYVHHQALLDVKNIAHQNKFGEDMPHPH

[4] = tested on: HCT-116; test: cells; type: functional, cell-based; settings: Homo sapiens, HCT-116, 72 h
Description: Antiproliferative activity against human HCT-116 cells assessed as inhibition of cell growth incubated for 72 hrs by MTT assay

[5] = target: Histone deacetylase 11 (Homo sapiens, UniProt Q96DB2); test: Inhibition of recombinant HDAC11 (unknown origin) preincubated for 1 hr followed by substrate addition and measured after 2 hrs by fluorescence based micro plate reader analysis
Histone deacetylase 11, sequence (Q96DB2 whole entry): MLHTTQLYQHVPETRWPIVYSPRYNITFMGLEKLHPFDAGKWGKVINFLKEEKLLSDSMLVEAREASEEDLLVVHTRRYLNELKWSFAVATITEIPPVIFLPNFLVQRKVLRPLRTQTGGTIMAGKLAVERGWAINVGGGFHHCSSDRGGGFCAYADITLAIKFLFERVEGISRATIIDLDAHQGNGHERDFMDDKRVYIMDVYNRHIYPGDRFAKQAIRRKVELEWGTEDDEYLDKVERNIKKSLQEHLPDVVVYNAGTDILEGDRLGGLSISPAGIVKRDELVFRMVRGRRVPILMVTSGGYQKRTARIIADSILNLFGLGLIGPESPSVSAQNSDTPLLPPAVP

[6] = tested on: B16-F10; test: cells; type: functional, cell-based; settings: Mus musculus, B16-F10, 72 h
Description: Antiproliferative activity against mouse B16-F10 cells assessed as inhibition of cell growth incubated for 72 hrs by MTT assay

[7] = tested on: SK-OV-3; test: cells; type: functional, cell-based; settings: Homo sapiens, SK-OV-3, 72 h
Description: Antiproliferative activity against human SK-OV-3 cells assessed as inhibition of cell growth incubated for 72 hrs by MTT assay

[8] = tested on: 4T1; test: cells; type: functional, cell-based; settings: Mus musculus, 4T1, 72 h
[9] = Retention time of compound by HPLC analysis; type: physicochemical
[10] = tested on: Mus musculus; test: Immunomodulatory activity in male C57BL/6 mouse model implanted with mouse B16-F10 cells assessed as increase in CD3+ CD4+ T cells in tumor at 50 mg/kg, po administered once daily for 14 days by flow cytometric analysis (reference value: 3.1 %); type: functional; settings: time 14 day
[11] = target: T2, Histone deacetylase 3 (Mus musculus) (UniProt O88895); test: Inhibition of HDAC3 in mouse 4T1 cells assessed as increase in histone H3 acetylation level at 5 to 20 uM incubated for 24 hrs by Western blot analysis; type: cell-based; settings: dose 5-20 µM
T2 sequence (whole entry): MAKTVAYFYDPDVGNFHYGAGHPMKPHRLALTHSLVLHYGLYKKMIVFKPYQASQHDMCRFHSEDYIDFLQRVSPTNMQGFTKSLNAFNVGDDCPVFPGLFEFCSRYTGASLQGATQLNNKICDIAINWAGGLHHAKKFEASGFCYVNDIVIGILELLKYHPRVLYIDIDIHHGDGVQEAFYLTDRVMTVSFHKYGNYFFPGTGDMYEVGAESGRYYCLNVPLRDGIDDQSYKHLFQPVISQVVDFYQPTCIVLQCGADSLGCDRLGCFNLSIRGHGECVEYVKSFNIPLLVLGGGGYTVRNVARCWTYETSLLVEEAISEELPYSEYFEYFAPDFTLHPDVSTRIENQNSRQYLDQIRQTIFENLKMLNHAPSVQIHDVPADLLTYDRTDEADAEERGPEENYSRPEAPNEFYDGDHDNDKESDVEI

[12] = target: T2, Histone deacetylase 3 (Mus musculus); test: Inhibition of HDAC3 in mouse B16-F10 cells assessed as increase in histone H3 acetylation level at 5 to 20 uM incubated for 24 hrs by Western blot analysis; type: cell-based; settings: dose 5-20 µM
[13] = tested on: Mus musculus; test: Effect on acetylated alpha-tubulin level in male C57BL/6 mouse tumor implanted with mouse B16-F10 cells at 50 mg/kg, po administered once daily via gavage for 14 days by Western blot analysis; type: functional, organism-based; settings: time 14.0 day
[14] = target: T2, Histone deacetylase 3 (Mus musculus); test: In vivo inhibition of HDAC3 in male C57BL/6 mouse model implanted with mouse B16-F10 cells assessed as increase in acetylated histone H3 level in tumor at 50 mg/kg, po administered once daily via gavage for 14 days by DAPI staining based immunofluorescence analysis; type: functional, organism-based; settings: time 14.0 day
[15] = tested on: Mus musculus; test: Immunomodulatory activity in male C57BL/6 mouse model implanted with mouse B16-F10 cells assessed as increase in CD3+ CD8+ T cells in tumor at 50 mg/kg, po administered once daily for 14 days by flow cytometric analysis (reference value: 3.2 %); type: functional; settings: time 14 day
[16] = target: T2, Histone deacetylase 3 (Mus musculus); test: In vivo inhibition of HDAC3 in male C57BL/6 mouse model implanted with mouse B16-F10 cells assessed as increase in acetylated histone H3 level at 50 mg/kg, po administered once daily via gavage for 14 days by Western blot analysis; type: functional, organism-based; settings: time 14.0 day

Histone deacetylase 3, sequence (O15379 whole entry): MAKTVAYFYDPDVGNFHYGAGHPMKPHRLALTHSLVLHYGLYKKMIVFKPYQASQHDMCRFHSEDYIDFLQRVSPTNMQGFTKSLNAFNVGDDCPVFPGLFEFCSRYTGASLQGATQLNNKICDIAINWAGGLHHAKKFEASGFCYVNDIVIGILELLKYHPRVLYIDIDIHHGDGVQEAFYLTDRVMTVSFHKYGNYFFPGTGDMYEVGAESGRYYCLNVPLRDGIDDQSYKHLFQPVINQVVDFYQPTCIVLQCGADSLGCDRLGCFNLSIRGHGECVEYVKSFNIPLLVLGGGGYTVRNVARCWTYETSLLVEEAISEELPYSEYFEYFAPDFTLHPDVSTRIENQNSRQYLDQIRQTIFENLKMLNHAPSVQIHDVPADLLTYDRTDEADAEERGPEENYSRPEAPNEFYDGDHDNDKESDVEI
Histone deacetylase 1, sequence (Q13547 whole entry): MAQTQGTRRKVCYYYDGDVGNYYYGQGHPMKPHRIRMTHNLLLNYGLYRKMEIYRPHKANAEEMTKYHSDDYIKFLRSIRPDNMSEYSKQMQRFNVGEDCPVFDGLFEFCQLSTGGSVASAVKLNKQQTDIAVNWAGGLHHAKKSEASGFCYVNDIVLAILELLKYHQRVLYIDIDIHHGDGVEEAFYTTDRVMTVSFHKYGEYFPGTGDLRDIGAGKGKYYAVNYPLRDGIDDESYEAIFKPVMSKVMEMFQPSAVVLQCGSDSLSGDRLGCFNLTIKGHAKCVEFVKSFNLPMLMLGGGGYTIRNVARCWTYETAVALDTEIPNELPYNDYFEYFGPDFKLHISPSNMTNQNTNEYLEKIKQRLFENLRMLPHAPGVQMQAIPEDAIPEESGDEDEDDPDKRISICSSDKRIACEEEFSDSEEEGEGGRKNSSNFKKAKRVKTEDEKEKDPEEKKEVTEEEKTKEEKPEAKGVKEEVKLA

Compound | inhibition [1] [%] | inhibition [2] [%] | inhibition [3] [%] | further results
CCCN(CCC)NC(=O)c1ccc(Cn2c3ccccc3c3c(-c4cccc(F)c4)nc4ccccc4c32)cc1 | 27 | 31 | < 10 | –
CCCNNC(=O)c1ccc(Cn2c3ccccc3c3c(-c4cc(Cl)ccc4O)nc4ccccc4c32)cc1 | 31 | 47 | 30 | –
CCCNNC(=O)c1ccc(Cn2c3ccccc3c3c(-c4cccc(Cl)c4)nc4ccccc4c32)cc1 | 25 | 73 | < 10 | –
Nc1ccccc1NC(=O)c1ccc(CNC(=O)OCc2cccnc2)cc1 [ENTINOSTAT] | 88 | – | 24 | IC50 [4]: 1.67 µM; IC50 [5]: > 10 µM; IC50 [6]: 13.9 µM; IC50 [7]: > 10 µM; IC50 [8]: 6.85 µM
CC(/C=C/C(=O)NO)=C\[C@@H](C)C(=O)c1ccc(N(C)C)cc1 [TRICHOSTATIN] | – | – | – | Retention_time [9]: 14.7 min
CCCNNC(=O)c1ccc(Cn2c3ccccc3c3c(-c4cn(C)c5ccccc45)nc4ccccc4c32)cc1 | < 10 | 36 | < 10 | –
CCCNNC(=O)c1ccc(Cn2c3ccccc3c3c(-c4cccc(F)c4)nc4ccccc4c32)cc1 | 20 | 69 | < 10 | –
O=C(CCCCCCC(=O)Nc1ccccc1)NO [VORINOSTAT] | – | 77 | – | Activity [10]: 17%; inhibition [11]: Active; inhibition [12]: Active; Activity [13]: inactive; inhibition [14]: Active; Activity [15]: 23%; inhibition [16]: Active
CCCNNC(=O)c1ccc(Cn2c3ccccc3c3c(-c4ccc(C(=O)NNCCC)cc4)nc4ccccc4c32)cc1 | < 10 | 38 | < 10 | –
CCCNNC(=O)c1ccc(Cn2c3ccccc3c3c(-c4cc(OC)ccc4O)nc4ccccc4c32)cc1 | 27 | 66 | 14 | –
CCCN(CCC)NC(=O)c1ccc(Cn2c3ccccc3c3c(C4CCN(C(=O)OC(C)(C)C)CC4)nc4ccccc4c32)cc1 | < 10 | < 10 | < 10 | –
CCCNNC(=O)c1ccc(Cn2c3ccccc3c3c(-c4cccc([N+](=O)[O-])c4)nc4ccccc4c32)cc1 | < 10 | 47 | 18 | –
CCCNNC(=O)c1ccc(Cn2c3ccccc3c3c(-c4ccc(OC)cc4)nc4ccccc4c32)cc1 | 29 | 58 | < 10 | –
CCCNNC(=O)c1ccc(Cn2c3ccccc3c3c(C4CCN(C(=O)OC(C)(C)C)CC4)nc4ccccc4c32)cc1 | 22 | 73 | < 10 | –
CCCNNC(=O)c1ccc(Cn2c3ccccc3c3c(-c4ccc(O)c(OC)c4)nc4ccccc4c32)cc1 | 20 | 79 | < 10 | –
CCCNNC(=O)c1ccc(Cn2c3ccccc3c3c(-c4ccc(C#N)cc4)nc4ccccc4c32)cc1 | < 10 | 33 | < 10 | –

Continued, in another order:

inhibition [1] [%] | inhibition [2] [%] | inhibition [3] [%] | Compound | further results
< 10 | < 10 | < 10 | CCCCCCCCCCNNC(=O)c1ccc(Cn2c3ccccc3c3c(-c4ccccn4)nc4ccccc4c32)cc1 | –
35 | 92 | < 10 | CCCCNNC(=O)c1ccc(Cn2c3ccccc3c3c(-c4ccccn4)nc4ccccc4c32)cc1 | –
12 | 65 | 19 | CCCNNC(=O)c1ccc(Cn2c3ccccc3c3c(-c4ccncc4)nc4ccccc4c32)cc1 | –
39 | 91 | < 10 | C/C=C/CNNC(=O)c1ccc(Cn2c3ccccc3c3c(-c4ccccn4)nc4ccccc4c32)cc1 | –
11 | 32 | < 10 | CCNNC(=O)c1ccc(Cn2c3ccccc3c3c(-c4ccccn4)nc4ccccc4c32)cc1 | –
< 10 | 57 | 24 | CCCNNC(=O)c1ccc(Cn2c3ccccc3c3c(-c4ccccc4)nc4ccccc4c32)cc1 | –
23 | 29 | < 10 | CCCN(CCC)NC(=O)c1ccc(Cn2c3ccccc3c3c(-c4ccccn4)nc4ccccc4c32)cc1 | –
20 | 82 | < 10 | CCCCCNNC(=O)c1ccc(Cn2c3ccccc3c3c(-c4ccccn4)nc4ccccc4c32)cc1 | –
< 10 | 40 | 26 | CCCCCCCCNNC(=O)c1ccc(Cn2c3ccccc3c3c(-c4ccccn4)nc4ccccc4c32)cc1 | –
16 | 84 | 21 | CCCNNC(=O)c1ccc(Cn2c3ccccc3c3c(-c4cccnc4)nc4ccccc4c32)cc1 | –
< 10 | 29 | < 10 | CCCCCCCCCNNC(=O)c1ccc(Cn2c3ccccc3c3c(-c4ccccn4)nc4ccccc4c32)cc1 | –
< 10 | < 10 | < 10 | CC(C)NNC(=O)c1ccc(Cn2c3ccccc3c3c(-c4ccccn4)nc4ccccc4c32)cc1 | –
22 | 53 | < 10 | CCCCCCCNNC(=O)c1ccc(Cn2c3ccccc3c3c(-c4ccccn4)nc4ccccc4c32)cc1 | –
< 10 | < 10 | < 10 | CC(C)CCNNC(=O)c1ccc(Cn2c3ccccc3c3c(-c4ccccn4)nc4ccccc4c32)cc1 | –
